#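 How tested: cells in 96-well plates exposed to compound for 48 hours at five concentrations. At the GI50, growth is halved. TGI is the concentration that stops growth completely.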
# Assays:
# Test in all cases: NCI anticancer screen, dose series, 48 h
# 786-0 renal = tested on: 786-0 renal
# A549 NSCLC = tested on: A549 NSCLC
# ACHN renal = tested on: ACHN renal
# BT-549 breast = tested on: BT-549 breast
# CAKI-1 renal = tested on: CAKI-1 renal
# COLO 205 colon = tested on: COLO 205 colon
# DU-145 prostate = tested on: DU-145 prostate
# EKVX NSCLC = tested on: EKVX NSCLC
# HCT-116 colon = tested on: HCT-116 colon
# HCT-15 colon = tested on: HCT-15 colon
# HL-60(TB) leukemia = tested on: HL-60(TB) leukemia
# HOP-62 NSCLC = tested on: HOP-62 NSCLC
# HOP-92 NSCLC = tested on: HOP-92 NSCLC
# HS 578T breast = tested on: HS 578T breast
# HT29 colon = tested on: HT29 colon
# IGROV1 ovarian = tested on: IGROV1 ovarian
# KM12 colon = tested on: KM12 colon
# LOX IMVI melanoma = tested on: LOX IMVI melanoma
# M14 melanoma = tested on: M14 melanoma
# MALME-3M melanoma = tested on: MALME-3M melanoma
# MCF7 breast = tested on: MCF7 breast
# MDA-MB-231 breast = tested on: MDA-MB-231 breast
# MDA-MB-435 = tested on: MDA-MB-435
# MOLT-4 leukemia = tested on: MOLT-4 leukemia
# NCI-H226 lung = tested on: NCI-H226 lung
# NCI-H522 lung = tested on: NCI-H522 lung
# OVCAR-3 ovarian = tested on: OVCAR-3 ovarian
# OVCAR-4 ovarian = tested on: OVCAR-4 ovarian
# OVCAR-5 ovarian = tested on: OVCAR-5 ovarian
# OVCAR-8 ovarian = tested on: OVCAR-8 ovarian
# PC-3 prostate = tested on: PC-3 prostate
# RPMI-8226 leukemia = tested on: RPMI-8226 leukemia
# RXF 393 renal = tested on: RXF 393 renal
# SF-268 CNS = tested on: SF-268 CNS
# SF-295 CNS = tested on: SF-295 CNS
# SF-539 CNS = tested on: SF-539 CNS
# SK-MEL-2 melanoma = tested on: SK-MEL-2 melanoma
# SK-MEL-28 melanoma = tested on: SK-MEL-28 melanoma
# SK-MEL-5 melanoma = tested on: SK-MEL-5 melanoma
# SK-OV-3 ovarian = tested on: SK-OV-3 ovarian
# SN12C renal = tested on: SN12C renal
# SNB-19 CNS = tested on: SNB-19 CNS
# SNB-75 CNS = tested on: SNB-75 CNS
# SR leukemia = tested on: SR leukemia
# TK-10 renal = tested on: TK-10 renal
# U251 CNS = tested on: U251 CNS
# UACC-257 melanoma = tested on: UACC-257 melanoma
# UO-31 renal = tested on: UO-31 renal
# A498 renal = tested on: A498 renal
# CCRF-CEM leukemia = tested on: CCRF-CEM leukemia
# HCC-2998 colon = tested on: HCC-2998 colon
# K-562 leukemia = tested on: K-562 leukemia
# NCI-H23 lung = tested on: NCI-H23 lung
# NCI-H460 lung = tested on: NCI-H460 lung
# NCI/ADR-RES ovarian = tested on: NCI/ADR-RES ovarian
# SW-620 colon = tested on: SW-620 colon
# T-47D breast = tested on: T-47D breast
# UACC-62 melanoma = tested on: UACC-62 melanoma
smiles,measurement,setting,value
OC1CCN(CCCOc2c3ccc(Cl)cc3nc3c2oc2ccccc23)CC1,GI50,786-0 renal,1300 nM
same,TGI,786-0 renal,4860 nM
same,GI50,A549 NSCLC,1230 nM
same,TGI,A549 NSCLC,23200 nM
same,GI50,ACHN renal,491 nM
same,TGI,ACHN renal,11700 nM
same,GI50,BT-549 breast,2490 nM
same,TGI,BT-549 breast,7240 nM
same,GI50,CAKI-1 renal,525 nM
same,TGI,CAKI-1 renal,3350 nM
same,GI50,COLO 205 colon,661 nM
same,TGI,COLO 205 colon,2150 nM
same,GI50,DU-145 prostate,1570 nM
same,TGI,DU-145 prostate,> 100000 nM
same,GI50,EKVX NSCLC,2390 nM
same,TGI,EKVX NSCLC,8460 nM
same,GI50,HCT-116 colon,390 nM
same,TGI,HCT-116 colon,2110 nM
same,GI50,HCT-15 colon,780 nM
same,TGI,HCT-15 colon,> 100000 nM
same,GI50,HL-60(TB) leukemia,1580 nM
same,TGI,HL-60(TB) leukemia,4800 nM
same,GI50,HOP-62 NSCLC,1860 nM
same,TGI,HOP-62 NSCLC,11400 nM
same,GI50,HOP-92 NSCLC,1040 nM
same,TGI,HOP-92 NSCLC,3790 nM
same,GI50,HS 578T breast,2170 nM
same,TGI,HS 578T breast,8010 nM
same,GI50,HT29 colon,610 nM
same,TGI,HT29 colon,2270 nM
same,GI50,IGROV1 ovarian,1970 nM
same,TGI,IGROV1 ovarian,12500 nM
same,GI50,KM12 colon,1480 nM
same,TGI,KM12 colon,> 100000 nM
same,GI50,LOX IMVI melanoma,343 nM
same,TGI,LOX IMVI melanoma,1450 nM
same,GI50,M14 melanoma,1340 nM
same,TGI,M14 melanoma,3090 nM
same,GI50,MALME-3M melanoma,1490 nM
same,TGI,MALME-3M melanoma,3100 nM
same,GI50,MCF7 breast,968 nM
same,TGI,MCF7 breast,4300 nM
same,GI50,MDA-MB-231 breast,1570 nM
same,TGI,MDA-MB-231 breast,6130 nM
same,GI50,MDA-MB-435,1230 nM
same,TGI,MDA-MB-435,2570 nM
same,GI50,MOLT-4 leukemia,391 nM
same,TGI,MOLT-4 leukemia,3200 nM
same,GI50,NCI-H226 lung,1990 nM
same,TGI,NCI-H226 lung,5630 nM
same,GI50,NCI-H522 lung,1280 nM
same,TGI,NCI-H522 lung,3200 nM
same,GI50,OVCAR-3 ovarian,2200 nM
same,TGI,OVCAR-3 ovarian,> 100000 nM
same,GI50,OVCAR-4 ovarian,1390 nM
same,TGI,OVCAR-4 ovarian,5090 nM
same,GI50,OVCAR-5 ovarian,1970 nM
same,TGI,OVCAR-5 ovarian,6850 nM
same,GI50,OVCAR-8 ovarian,1130 nM
same,TGI,OVCAR-8 ovarian,13500 nM
same,GI50,PC-3 prostate,1490 nM
same,TGI,PC-3 prostate,4070 nM
same,GI50,RPMI-8226 leukemia,1590 nM
same,TGI,RPMI-8226 leukemia,4800 nM
same,GI50,RXF 393 renal,1280 nM
same,TGI,RXF 393 renal,3360 nM
same,GI50,SF-268 CNS,1490 nM
same,TGI,SF-268 CNS,> 100000 nM
same,GI50,SF-295 CNS,2080 nM
same,TGI,SF-295 CNS,11800 nM
same,GI50,SF-539 CNS,1320 nM
same,TGI,SF-539 CNS,2640 nM
same,GI50,SK-MEL-2 melanoma,1760 nM
same,TGI,SK-MEL-2 melanoma,3340 nM
same,GI50,SK-MEL-28 melanoma,1690 nM
same,TGI,SK-MEL-28 melanoma,3170 nM
same,GI50,SK-MEL-5 melanoma,1790 nM
same,TGI,SK-MEL-5 melanoma,3250 nM
same,GI50,SK-OV-3 ovarian,2420 nM
same,TGI,SK-OV-3 ovarian,10500 nM
same,GI50,SN12C renal,839 nM
same,TGI,SN12C renal,> 100000 nM
same,GI50,SNB-19 CNS,2280 nM
same,TGI,SNB-19 CNS,32600 nM
same,GI50,SNB-75 CNS,1330 nM
same,TGI,SNB-75 CNS,2700 nM
same,GI50,SR leukemia,458 nM
same,TGI,SR leukemia,3230 nM
same,GI50,TK-10 renal,2780 nM
same,TGI,TK-10 renal,7650 nM
same,GI50,U251 CNS,1090 nM
same,TGI,U251 CNS,7400 nM
same,GI50,UACC-257 melanoma,1720 nM
same,TGI,UACC-257 melanoma,3490 nM
same,GI50,UO-31 renal,517 nM
same,TGI,UO-31 renal,3100 nM
CCCn1cnc2c(c1=N)C(c1ccc(Cl)cc1)c1sc3c(C)cccc3c1O2 (centres undefined),GI50,786-0 renal,558 nM
same,TGI,786-0 renal,11200 nM
same,GI50,A498 renal,304 nM
same,TGI,A498 renal,1170 nM
same,GI50,A549 NSCLC,530 nM
same,TGI,A549 NSCLC,8740 nM
same,GI50,ACHN renal,791 nM
same,TGI,ACHN renal,14900 nM
same,GI50,BT-549 breast,1490 nM
same,TGI,BT-549 breast,6890 nM
same,GI50,CAKI-1 renal,192 nM
same,TGI,CAKI-1 renal,14900 nM
same,GI50,CCRF-CEM leukemia,380 nM
same,GI50,COLO 205 colon,386 nM
same,TGI,COLO 205 colon,1900 nM
same,GI50,DU-145 prostate,444 nM
same,TGI,DU-145 prostate,5440 nM
same,GI50,EKVX NSCLC,572 nM
same,TGI,EKVX NSCLC,19400 nM
same,GI50,HCC-2998 colon,732 nM
same,TGI,HCC-2998 colon,6100 nM
same,GI50,HCT-116 colon,410 nM
same,TGI,HCT-116 colon,2150 nM
same,GI50,HCT-15 colon,409 nM
same,TGI,HCT-15 colon,4930 nM
same,GI50,HL-60(TB) leukemia,346 nM
same,TGI,HL-60(TB) leukemia,1690 nM
same,GI50,HOP-62 NSCLC,477 nM
same,TGI,HOP-62 NSCLC,10700 nM
same,GI50,HOP-92 NSCLC,1980 nM
same,TGI,HOP-92 NSCLC,14500 nM
same,GI50,HS 578T breast,352 nM
same,TGI,HS 578T breast,5470 nM
same,GI50,HT29 colon,402 nM
same,TGI,HT29 colon,5110 nM
same,GI50,IGROV1 ovarian,464 nM
same,TGI,IGROV1 ovarian,11800 nM
same,GI50,K-562 leukemia,283 nM
same,TGI,K-562 leukemia,4200 nM
same,GI50,KM12 colon,443 nM
same,TGI,KM12 colon,11200 nM
same,GI50,LOX IMVI melanoma,701 nM
same,TGI,LOX IMVI melanoma,6730 nM
same,GI50,M14 melanoma,314 nM
same,TGI,M14 melanoma,3860 nM
same,GI50,MALME-3M melanoma,10200 nM
same,TGI,MALME-3M melanoma,25100 nM
same,GI50,MCF7 breast,339 nM
same,TGI,MCF7 breast,10800 nM
same,GI50,MDA-MB-231 breast,774 nM
same,TGI,MDA-MB-231 breast,13200 nM
same,GI50,MOLT-4 leukemia,498 nM
same,TGI,MOLT-4 leukemia,7700 nM
same,GI50,NCI-H226 lung,431 nM
same,TGI,NCI-H226 lung,4080 nM
same,GI50,NCI-H23 lung,587 nM
same,TGI,NCI-H23 lung,13100 nM
same,GI50,NCI-H460 lung,362 nM
same,TGI,NCI-H460 lung,1900 nM
same,GI50,NCI-H522 lung,387 nM
same,TGI,NCI-H522 lung,5700 nM
same,GI50,NCI/ADR-RES ovarian,316 nM
same,TGI,NCI/ADR-RES ovarian,2440 nM
same,GI50,OVCAR-3 ovarian,283 nM
same,TGI,OVCAR-3 ovarian,1050 nM
same,GI50,OVCAR-4 ovarian,1570 nM
same,TGI,OVCAR-4 ovarian,17800 nM
same,GI50,OVCAR-5 ovarian,674 nM
same,TGI,OVCAR-5 ovarian,13100 nM
same,GI50,OVCAR-8 ovarian,522 nM
same,TGI,OVCAR-8 ovarian,11400 nM
same,GI50,PC-3 prostate,454 nM
same,TGI,PC-3 prostate,14300 nM
same,GI50,RPMI-8226 leukemia,381 nM
same,TGI,RPMI-8226 leukemia,3720 nM
same,GI50,RXF 393 renal,217 nM
same,TGI,RXF 393 renal,600 nM
same,GI50,SF-268 CNS,953 nM
same,TGI,SF-268 CNS,11100 nM
same,GI50,SF-295 CNS,374 nM
same,TGI,SF-295 CNS,10500 nM
same,GI50,SF-539 CNS,316 nM
same,TGI,SF-539 CNS,1110 nM
same,GI50,SK-MEL-2 melanoma,726 nM
same,TGI,SK-MEL-2 melanoma,16000 nM
same,GI50,SK-MEL-28 melanoma,2340 nM
same,TGI,SK-MEL-28 melanoma,21900 nM
same,GI50,SK-MEL-5 melanoma,430 nM
same,TGI,SK-MEL-5 melanoma,3460 nM
same,GI50,SK-OV-3 ovarian,680 nM
same,TGI,SK-OV-3 ovarian,19700 nM
same,GI50,SN12C renal,879 nM
same,TGI,SN12C renal,13300 nM
same,GI50,SNB-19 CNS,527 nM
same,TGI,SNB-19 CNS,17600 nM
same,GI50,SNB-75 CNS,237 nM
same,TGI,SNB-75 CNS,2660 nM
same,GI50,SR leukemia,377 nM
same,TGI,SR leukemia,5990 nM
same,GI50,SW-620 colon,402 nM
same,TGI,SW-620 colon,11700 nM
same,GI50,T-47D breast,522 nM
same,TGI,T-47D breast,24300 nM
same,GI50,TK-10 renal,5690 nM
same,TGI,TK-10 renal,24000 nM
same,GI50,U251 CNS,432 nM
same,TGI,U251 CNS,11300 nM
same,GI50,UACC-257 melanoma,8900 nM
same,TGI,UACC-257 melanoma,29000 nM
same,GI50,UACC-62 melanoma,490 nM
same,TGI,UACC-62 melanoma,15000 nM
same,GI50,UO-31 renal,612 nM
same,TGI,UO-31 renal,18200 nM
